In PMC2931804 (Clinical cancer research : an official journal of the …, 2010):
Where two headings read alike, the source gives them in different places.

[1] = DL3 800 mg twice daily × 3 + sLV5FU2, Any cycle, n = 3
[2] = DL3 1,000 mg once daily × 3 + sLV5FU2, 1st cycle, n = 3
[3] = DL3 1,000 mg once daily × 3 + sLV5FU2, Any cycle, n = 3
[4] = DL4 1,200 mg once daily × 3 + sLV5FU2, 1st cycle, n = 3
[5] = DL4 1,200 mg once daily × 3 + sLV5FU2, Any cycle, n = 3
[6] = DL5 1,400 mg once daily × 3 + sLV5FU2, 1st cycle, n = 3
[7] = DL5 1,400 mg once daily × 3 + sLV5FU2, Any cycle, n = 3
[8] = DL6 1,700 mg once daily × 3 + sLV5FU2, 1st cycle, n = 6
[9] = DL6 1,700 mg once daily × 3 + sLV5FU2, Any cycle, n = 6
[10] = DL7 2,000 mg once daily × 3 + sLV5FU2, 1st cycle, n = 3
[11] = DL7 2,000 mg once daily × 3 + sLV5FU2, Any cycle, n = 3

O=C(CCCCCCC(=O)Nc1ccccc1)NO [vorinostat, suberoylanilide hydroxamic acid]
1,700 mg: MTD of vorinostat, once-daily schedule (orally once daily × 3 days every 2 weeks, in combination with sLV5FU2)
without any DLT: DLT (once-daily dose levels 1 through 6, three patients each)
3/0/0: Fatigue, treatment-related, patients (G2/G3/G4) [8]
0/0/0: Nausea, treatment-related, patients (G2/G3/G4) [1] | Vomiting, treatment-related, patients (G2/G3/G4) [1] | Anorexia, treatment-related, patients (G2/G3/G4) [2] | DVT/PE, treatment-related, patients (G2/G3/G4) [2] | Dehydration, treatment-related, patients (G2/G3/G4) [2] | Diarrhea, treatment-related, patients (G2/G3/G4) [2] | GI bleed, treatment-related, patients (G2/G3/G4) [2] | Hand and Foot, treatment-related, patients (G2/G3/G4) [2] | Infection, treatment-related, patients (G2/G3/G4) [2] | Mucositis, treatment-related, patients (G2/G3/G4) [2] | Nausea, treatment-related, patients (G2/G3/G4) [2] | Neutropenia, treatment-related, patients (G2/G3/G4) [2] | Thrombocytopenia, treatment-related, patients (G2/G3/G4) [2] | Vomiting, treatment-related, patients (G2/G3/G4) [2] | Weight Loss, treatment-related, patients (G2/G3/G4) [2] | Anorexia, treatment-related, patients (G2/G3/G4) [3] | DVT/PE, treatment-related, patients (G2/G3/G4) [3] | Dehydration, treatment-related, patients (G2/G3/G4) [3] | Diarrhea, treatment-related, patients (G2/G3/G4) [3] | GI bleed, treatment-related, patients (G2/G3/G4) [3] | Hand and Foot, treatment-related, patients (G2/G3/G4) [3] | Infection, treatment-related, patients (G2/G3/G4) [3] | Nausea, treatment-related, patients (G2/G3/G4) [3] | Neutropenia, treatment-related, patients (G2/G3/G4) [3] | Thrombocytopenia, treatment-related, patients (G2/G3/G4) [3] | Vomiting, treatment-related, patients (G2/G3/G4) [3] | Weight Loss, treatment-related, patients (G2/G3/G4) [3] | Anemia, treatment-related, patients (G2/G3/G4) [4] | Anorexia, treatment-related, patients (G2/G3/G4) [4] | DVT/PE, treatment-related, patients (G2/G3/G4) [4] | Dehydration, treatment-related, patients (G2/G3/G4) [4] | Diarrhea, treatment-related, patients (G2/G3/G4) [4] | GI bleed, treatment-related, patients (G2/G3/G4) [4] | Hand and Foot, treatment-related, patients (G2/G3/G4) [4] | Infection, treatment-related, patients (G2/G3/G4) [4] | Mucositis, treatment-related, patients (G2/G3/G4) [4] | Nausea, treatment-related, patients (G2/G3/G4) [4] | Neutropenia, treatment-related, patients (G2/G3/G4) [4] | Thrombocytopenia, treatment-related, patients (G2/G3/G4) [4] | Weight Loss, treatment-related, patients (G2/G3/G4) [4] | Anemia, treatment-related, patients (G2/G3/G4) [5] | Dehydration, treatment-related, patients (G2/G3/G4) [5] | GI bleed, treatment-related, patients (G2/G3/G4) [5] | Hand and Foot, treatment-related, patients (G2/G3/G4) [5] | Infection, treatment-related, patients (G2/G3/G4) [5] | Mucositis, treatment-related, patients (G2/G3/G4) [5] | Neutropenia, treatment-related, patients (G2/G3/G4) [5] | Thrombocytopenia, treatment-related, patients (G2/G3/G4) [5] | Anemia, treatment-related, patients (G2/G3/G4) [6] | Anorexia, treatment-related, patients (G2/G3/G4) [6] | DVT/PE, treatment-related, patients (G2/G3/G4) [6] | Dehydration, treatment-related, patients (G2/G3/G4) [6] | Diarrhea, treatment-related, patients (G2/G3/G4) [6] | Fatigue, treatment-related, patients (G2/G3/G4) [6] | GI bleed, treatment-related, patients (G2/G3/G4) [6] | Hand and Foot, treatment-related, patients (G2/G3/G4) [6] | Infection, treatment-related, patients (G2/G3/G4) [6] | Mucositis, treatment-related, patients (G2/G3/G4) [6] | Nausea, treatment-related, patients (G2/G3/G4) [6] | Thrombocytopenia, treatment-related, patients (G2/G3/G4) [6] | Vomiting, treatment-related, patients (G2/G3/G4) [6] | Weight Loss, treatment-related, patients (G2/G3/G4) [6] | DVT/PE, treatment-related, patients (G2/G3/G4) [7] | Dehydration, treatment-related, patients (G2/G3/G4) [7] | GI bleed, treatment-related, patients (G2/G3/G4) [7] | Hand and Foot, treatment-related, patients (G2/G3/G4) [7] | Infection, treatment-related, patients (G2/G3/G4) [7] | Mucositis, treatment-related, patients (G2/G3/G4) [7] | Nausea, treatment-related, patients (G2/G3/G4) [7] | Thrombocytopenia, treatment-related, patients (G2/G3/G4) [7] | Anemia, treatment-related, patients (G2/G3/G4) [8] | DVT/PE, treatment-related, patients (G2/G3/G4) [8] | Dehydration, treatment-related, patients (G2/G3/G4) [8] | GI bleed, treatment-related, patients (G2/G3/G4) [8] | Hand and Foot, treatment-related, patients (G2/G3/G4) [8] | Infection, treatment-related, patients (G2/G3/G4) [8] | Mucositis, treatment-related, patients (G2/G3/G4) [8] | Neutropenia, treatment-related, patients (G2/G3/G4) [8] | Thrombocytopenia, treatment-related, patients (G2/G3/G4) [8] | Vomiting, treatment-related, patients (G2/G3/G4) [8] | Weight Loss, treatment-related, patients (G2/G3/G4) [8] | GI bleed, treatment-related, patients (G2/G3/G4) [9] | Hand and Foot, treatment-related, patients (G2/G3/G4) [9] | Weight Loss, treatment-related, patients (G2/G3/G4) [9] | DVT/PE, treatment-related, patients (G2/G3/G4) [10] | Diarrhea, treatment-related, patients (G2/G3/G4) [10] | Infection, treatment-related, patients (G2/G3/G4) [10] | Mucositis, treatment-related, patients (G2/G3/G4) [10] | Vomiting, treatment-related, patients (G2/G3/G4) [10] | Weight Loss, treatment-related, patients (G2/G3/G4) [10] | DVT/PE, treatment-related, patients (G2/G3/G4) [11] | Diarrhea, treatment-related, patients (G2/G3/G4) [11] | Infection, treatment-related, patients (G2/G3/G4) [11] | Mucositis, treatment-related, patients (G2/G3/G4) [11] | Vomiting, treatment-related, patients (G2/G3/G4) [11] | Weight Loss, treatment-related, patients (G2/G3/G4) [11]
0/2/0: Infection, treatment-related, patients (G2/G3/G4) [9] | Anemia, treatment-related, patients (G2/G3/G4) [10] | Anemia, treatment-related, patients (G2/G3/G4) [11] | Fatigue, treatment-related, patients (G2/G3/G4) [11]
0/1/0: DVT/PE, treatment-related, patients (G2/G3/G4) [5] | Diarrhea, treatment-related, patients (G2/G3/G4) [5] | Neutropenia, treatment-related, patients (G2/G3/G4) [7] | Diarrhea, treatment-related, patients (G2/G3/G4) [8] | DVT/PE, treatment-related, patients (G2/G3/G4) [9] | GI bleed, treatment-related, patients (G2/G3/G4) [10] | Thrombocytopenia, treatment-related, patients (G2/G3/G4) [10] | GI bleed, treatment-related, patients (G2/G3/G4) [11] | Hand and Foot, treatment-related, patients (G2/G3/G4) [11] | Thrombocytopenia, treatment-related, patients (G2/G3/G4) [11]
1/1/0: Mucositis, treatment-related, patients (G2/G3/G4) [9] | Dehydration, treatment-related, patients (G2/G3/G4) [11]
1/0/0: Anemia, treatment-related, patients (G2/G3/G4) [2] | Fatigue, treatment-related, patients (G2/G3/G4) [2] | Anemia, treatment-related, patients (G2/G3/G4) [3] | Mucositis, treatment-related, patients (G2/G3/G4) [3] | Vomiting, treatment-related, patients (G2/G3/G4) [4] | Anorexia, treatment-related, patients (G2/G3/G4) [5] | Nausea, treatment-related, patients (G2/G3/G4) [5] | Weight Loss, treatment-related, patients (G2/G3/G4) [5] | Neutropenia, treatment-related, patients (G2/G3/G4) [6] | Anemia, treatment-related, patients (G2/G3/G4) [7] | Anorexia, treatment-related, patients (G2/G3/G4) [7] | Vomiting, treatment-related, patients (G2/G3/G4) [7] | Weight Loss, treatment-related, patients (G2/G3/G4) [7] | Neutropenia, treatment-related, patients (G2/G3/G4) [9] | Thrombocytopenia, treatment-related, patients (G2/G3/G4) [9] | Anorexia, treatment-related, patients (G2/G3/G4) [10] | Dehydration, treatment-related, patients (G2/G3/G4) [10] | Nausea, treatment-related, patients (G2/G3/G4) [10] | Neutropenia, treatment-related, patients (G2/G3/G4) [10] | Neutropenia, treatment-related, patients (G2/G3/G4) [11]
0/0/1: VTE, treatment-related, patients (G2/G3/G4) [1]
600 mg: MTD of vorinostat, twice-daily schedule (orally twice daily × 3 days every 2 weeks, in combination with sLV5FU2)
None: Patients with DLT (DL6 1,700 mg once daily × 3 + sLV5FU2, six patients)
2/1/0: Thrombocytopenia, treatment-related, patients (G2/G3/G4) [1] | Anemia, treatment-related, patients (G2/G3/G4) [9] | Dehydration, treatment-related, patients (G2/G3/G4) [9]
3/3/0: Vomiting, treatment-related, patients (G2/G3/G4) [9]
3/2/0: Diarrhea, treatment-related, patients (G2/G3/G4) [9]
6/0/0: Fatigue, treatment-related, patients (G2/G3/G4) [9]
2/0/0: Neutropenia, treatment-related, patients (G2/G3/G4) [1] | Fatigue, treatment-related, patients (G2/G3/G4) [3] | Fatigue, treatment-related, patients (G2/G3/G4) [4] | Fatigue, treatment-related, patients (G2/G3/G4) [5] | Vomiting, treatment-related, patients (G2/G3/G4) [5] | Diarrhea, treatment-related, patients (G2/G3/G4) [7] | Fatigue, treatment-related, patients (G2/G3/G4) [7] | Anorexia, treatment-related, patients (G2/G3/G4) [8] | Nausea, treatment-related, patients (G2/G3/G4) [8] | Anorexia, treatment-related, patients (G2/G3/G4) [11] | Nausea, treatment-related, patients (G2/G3/G4) [11]
